Reference: US8673942B2, “Fused ring compounds and use thereof” (Takeda Pharmaceutical Company Limited, priority 2008, dated 2014)

Columns and labels:
[1] = target: T1, human liver GK (GST-hLGK1) (Homo sapiens, UniProt P35557); assay: Measurement of GK activation value; type: biochemical; settings: GST-hLGK1 6 μg/mL, 5 mmol/L D-glucose, 50 μmol/L Mant-ATP, 60 min at 37° C.; concentration at midpoint between maximum activity value and control activity value
T1 construct: with a BamHI site added to immediately before the initiation codon; made in house; host or cells: Escherichia coli BL21 (Stratagene), plasmid pGEX6P-2/hLGK1
T1 sequence (P35557 1-464 isoform P35557-3): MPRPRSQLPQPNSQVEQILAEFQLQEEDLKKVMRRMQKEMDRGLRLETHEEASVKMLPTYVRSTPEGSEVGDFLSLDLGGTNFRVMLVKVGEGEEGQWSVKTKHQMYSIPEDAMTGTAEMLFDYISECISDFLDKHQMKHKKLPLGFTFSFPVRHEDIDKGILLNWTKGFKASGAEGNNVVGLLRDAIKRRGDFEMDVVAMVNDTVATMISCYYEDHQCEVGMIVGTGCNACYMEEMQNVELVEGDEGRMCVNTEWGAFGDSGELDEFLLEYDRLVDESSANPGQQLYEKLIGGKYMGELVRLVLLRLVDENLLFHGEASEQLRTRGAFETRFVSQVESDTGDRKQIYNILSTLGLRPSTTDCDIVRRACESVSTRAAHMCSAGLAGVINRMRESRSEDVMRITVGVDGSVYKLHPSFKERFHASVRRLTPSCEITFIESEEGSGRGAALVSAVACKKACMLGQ
Procedure: GK enzyme reactions were performed in 50 mmol/L HEPES pH 7.4, 200 mmol/L KCl, 5 mmol/L MgCl2, 2 mmol/L DTT, containing 50 μmol/L 2′-(or -3′)-O—(N-methylanthraniloyl)adenosine 5′-triphosphate (Mant-ATP) (Jena Bioscience GmbH), 5 mmol/L D-glucose, 5% DMSO and 6 μg/mL GST-hLGK1 obtained in Reference Example 2A in a total volume 50 μL. The reactions were performed in 384 well black plates (Nalge Nunc International K.K.). Prior to the reaction, the enzyme and test compound were incubated for 10 min at 37° C., and 25 mM D-glucose solution (10 μL) was added to start the reaction.
After the incubation for 60 min at 37° C., the reaction was quenched by adding 25 μL of a quenching solution (containing 200 mM HEPES (pH 7.4), 20 mM MgCl2, 200 mM EDTA, 0.03% Triton-X 100, 0.3% Coating 3 reagent (Caliper Life Sciences, Inc.)).
Mant-ATP (substrate, 2′- (or -3′)-O—(N-methylanthraniloyl) adenosine 5′-triphosphate) and Mant-ADP (reaction resultant product) were separated from each well after the reaction by a microchip type capillary electrophoresis apparatus 250 HTS (Caliper Life Sciences, Inc.). The reaction rate [(reaction resultant product peak height)/(reaction resultant product peak height+substrate peak height)×100(%)] was calculated from the ratio of the substrate peak height and reaction resultant product peak height obtained by fluorescence detection (excitation wavelength 355 nm, measurement wavelength 460 nm) and used as the index of GK activity.
As a control group, the reaction rate was calculated in the same manner as above without the test compounds.
The percentage obtained by dividing the reaction rate of the well added with each concentration of the test compound (test compound addition group) by the reaction rate of the control group was taken as the GK activity value, and the concentration of the test compound at the midpoint between the maximum activity value of the test compound addition group and the control group activity value is shown as EC50 value.

A melting point of 218 to 219 °C and an EC50 [1] of 55 nM were found for `CS(=O)(=O)c1ccc(Oc2cc(OCc3ccccc3)c3[nH]c(C4=NCC(CC(=O)O)S4)cc3c2)cc1` (centres unmarked) [Example 3, (2-{7-(Benzyloxy)-5-[4-(methylsulfonyl)phenoxy]-1H-indol-2-yl}-4,5-dihydro-1,3-thiazol-5-yl)acetic acid] in this work.

A melting point of 104 to 105 °C and an EC50 [1] of 44 nM were found for `CS(=O)(=O)c1ccc(Oc2cc(OCC3CCOCC3)c3[nH]c(C4=NCC(CCO)S4)cc3c2)cc1` (centres unmarked) [Example 19, 2-(2-{5-[4-(Methylsulfonyl)phenoxy]-7-(tetrahydro-2H-pyran-4-ylmethoxy)-1H-indol-2-yl}-4,5-dihydro-1,3-thiazol-5-yl)ethanol] in this work.

A melting point of 175 to 176 °C and an EC50 [1] of 42 nM were found for `CS(=O)(=O)c1ccc(Oc2cc(OCc3cccc(Cl)n3)c3[nH]c(C4=NCC(CC(=O)O)S4)cc3c2)cc1` (centres unmarked) [Example 7, (2-{7-[(6-Chloropyridin-2-yl)methoxy]-5-[4-(methylsulfonyl)phenoxy]-1H-indol-2-yl}-4,5-dihydro-1,3-thiazol-5-yl)acetic acid] in this work.

A melting point of 185 to 186 °C and an EC50 [1] of 38 nM were found for `COc1cc(Oc2ccc(S(C)(=O)=O)nc2)cc2cc(C3=NCC(CC(=O)NC[C@@H](C)O)S3)[nH]c12` (stereo partly drawn) [Example 81, N-[(2R)-2-Hydroxypropyl]-2-[2-(7-methoxy-5-{[6-(methylsulfonyl)pyridin-3-yl]oxy}-1H-indol-2-yl)-4,5-dihydro-1,3-thiazol-5-yl]acetamide] in this work.

A melting point of 206 to 207 °C and an EC50 [1] of 35 nM were found for `COc1cc(Oc2ccc(S(C)(=O)=O)nc2)cc2cc(C3=NCC(CC(=O)N(C)C)S3)[nH]c12` (centres unmarked) [Example 79, 2-[2-(7-Methoxy-5-{[6-(methylsulfonyl)pyridin-3-yl]oxy}-1H-indol-2-yl)-4,5-dihydro-1,3-thiazol-5-yl]-N,N-dimethylacetamide] in this work.

An EC50 [1] of 20 nM was found for `CCOc1cc(Oc2ccc(S(C)(=O)=O)nc2)cc2cc(C3=NCC(CC(=O)NC)S3)[nH]c12` (single isomer, unassigned) [Example 98, 2-[2-(7-Ethoxy-5-{[6-(methylsulfonyl)pyridin-3-yl]oxy}-1H-indol-2-yl)-4,5-dihydro-1,3-thiazol-5-yl]-N-methylacetamide] in this work.

A melting point of 138 to 139 °C was found for `COCC(C)Oc1cc(Oc2ccc(S(C)(=O)=O)nc2)cc2cc(C3=NCC(CCO)S3)[nH]c12` (centres unmarked) [Example 84, 2-{2-[7-(2-Methoxy-1-methylethoxy)-5-{[6-(methylsulfonyl)pyridin-3-yl]oxy}-1H-indol-2-yl]-4,5-dihydro-1,3-thiazol-5-yl}ethanol] in this work.

A melting point of 134 to 135 °C was found for `CS(=O)(=O)c1ccc(Oc2cc(OCc3ccccc3)c3[nH]c(C4=NCC(CC(N)=O)S4)cc3c2)cc1` (centres unmarked) [Example 4, 2-(2-{7-(Benzyloxy)-5-[4-(methylsulfonyl)phenoxy]-1H-indol-2-yl}-4,5-dihydro-1,3-thiazol-5-yl)acetamide] in this work.

An EC50 [1] of 17 nM was found for `COCC(C)Oc1cc(Oc2ccc(S(C)(=O)=O)cc2)cc2cc(C3=NCC(CCO)S3)[nH]c12` (single isomer, unassigned) [Example 57, 2-(2-{7-(2-Methoxy-1-methylethoxy)-5-[4-(methylsulfonyl)phenoxy]-1H-indol-2-yl}-4,5-dihydro-1,3-thiazol-5-yl)ethanol] in this work.

A melting point of 145 to 146 °C was found for `CC(C)Oc1cc(Oc2ccc(S(C)(=O)=O)cn2)cc2cc(C3=NCC(CC(C)(C)O)S3)[nH]c12` (single isomer, unassigned) [Example 64, 2-Methyl-1-{2-[7-(1-methylethoxy)-5-{[5-(methylsulfonyl)pyridin-2-yl]oxy}-1H-indol-2-yl]-4,5-dihydro-1,3-thiazol-5-yl}propan-2-ol] in this work.

A melting point of 131 to 132 °C was found for `COCC(C)Oc1cc(Oc2ccc(S(C)(=O)=O)nc2)cc2cc(C3=NCC(CC(N)=O)S3)[nH]c12` (centres unmarked) [Example 86, 2-{2-[7-(2-Methoxy-1-methylethoxy)-5-{[6-(methylsulfonyl)pyridin-3-yl]oxy}-1H-indol-2-yl]-4,5-dihydro-1,3-thiazol-5-yl}acetamide] in this work.

A melting point of 172 to 173 °C was found for `CC(C)Oc1cc(Oc2ccc(S(C)(=O)=O)cn2)cc2cc(C3=NCC(CCO)S3)[nH]c12` (centres unmarked) [Example 62] in this work.

An EC50 [1] of 59 nM was found for `CC(C)Oc1cc(Oc2ccc(S(C)(=O)=O)cn2)cc2cc(C3=NCC(CC(C)(C)O)S3)[nH]c12` (single isomer, unassigned) [Example 65, 2-Methyl-1-{2-[7-(1-methylethoxy)-5-{[5-(methylsulfonyl)pyridin-2-yl]oxy}-1H-indol-2-yl]-4,5-dihydro-1,3-thiazol-5-yl}propan-2-ol] in this work.

A melting point of 195 to 197 °C was found for `CNC(=O)CC1CN=C(c2cc3cc(Oc4ccc(S(C)(=O)=O)nc4)cc(OC)c3[nH]2)S1` (single isomer, unassigned) [Example 32, 2-[2-(7-Methoxy-5-{[6-(methylsulfonyl)pyridin-3-yl]oxy}-1H-indol-2-yl)-4,5-dihydro-1,3-thiazol-5-yl]-N-methylacetamide] in this work.

An EC50 [1] of 15 nM was found for `COCC(C)Oc1cc(Oc2ccc(S(C)(=O)=O)cc2)cc2cc(C3=NCC(CCO)S3)[nH]c12` (single isomer, unassigned) [Example 58, 2-(2-{7-(2-Methoxy-1-methylethoxy)-5-[4-(methylsulfonyl)phenoxy]-1H-indol-2-yl}-4,5-dihydro-1,3-thiazol-5-yl)ethanol] in this work.

A melting point of 248 to 249 °C was found for `COc1cc(Oc2ccc(S(C)(=O)=O)nc2)cc2cc(C3=NCC(CC(=O)NC4CC4)S3)[nH]c12` (centres unmarked) [Example 76, N-Cyclopropyl-2-[2-(7-methoxy-5-{[6-(methylsulfonyl)pyridin-3-yl]oxy}-1H-indol-2-yl)-4,5-dihydro-1,3-thiazol-5-yl]acetamide] in this work.

A melting point of 195 to 196 °C was found for `CCOc1cc(Oc2ccc(S(C)(=O)=O)nc2)cc2cc(C3=NCC(CC(N)=O)S3)[nH]c12` (centres unmarked) [Example 100, 2-[2-(7-Ethoxy-5-{[6-(methylsulfonyl)pyridin-3-yl]oxy}-1H-indol-2-yl)-4,5-dihydro-1,3-thiazol-5-yl]acetamide] in this work.

A melting point of 147 to 148 °C was found for `CS(=O)(=O)c1ccc(Oc2cc(OCc3cccc(Cl)n3)c3[nH]c(C4=NCC(CC(N)=O)S4)cc3c2)cc1` (centres unmarked) [Example 8, 2-(2-{7-[(6-Chloropyridin-2-yl)methoxy]-5-[4-(methylsulfonyl)phenoxy]-1H-indol-2-yl}-4,5-dihydro-1,3-thiazol-5-yl)acetamide] in this work.

A melting point of 109 to 112 °C was found for `COCC(C)Oc1cc(Oc2ccc(S(C)(=O)=O)cc2)cc2cc(C3=NCC(C(OC)OC)S3)[nH]c12` (centres unmarked) [Example 88, 2-[5-(Dimethoxymethyl)-4,5-dihydro-1,3-thiazol-2-yl]-7-(2-methoxy-1-methylethoxy)-5-[4-(methylsulfonyl)phenoxy]-1H-indole] in this work.

A melting point of 201 to 202 °C was found for `CNC(=O)CC1CN=C(c2cc3cc(Oc4ccc(S(C)(=O)=O)nc4)cc(OC)c3[nH]2)S1` (centres unmarked) [Example 30, 2-[2-(7-Methoxy-5-{[6-(methylsulfonyl)pyridin-3-yl]oxy}-1H-indol-2-yl)-4,5-dihydro-1,3-thiazol-5-yl]-N-Methylacetamide] in this work.

A melting point of 143 to 144 °C was found for `COCCOc1c(F)c(Oc2ccc(S(C)(=O)=O)nc2)cc2cc(C3=NCC(CC(N)=O)S3)[nH]c12` (centres unmarked) [Example 93, 2-{2-[6-Fluoro-7-(2-methoxyethoxy)-5-{[6-(methylsulfonyl)pyridin-3-yl]oxy}-1H-indol-2-yl]-4,5-dihydro-1,3-thiazol-5-yl}acetamide] in this work.
